Holding throughout (format): in vivo
One test relates to Abutilon theophrasti. The test is described as follows: Herbicide efficacy trial in sunflower crop, Example 1 (0 to 100 scale). The following applies: avg, n 1. The source says:
(§1) Four herbicide treatments were compared: • a) Imazamox 20 g/l + Aclonifen 300 g/l SC formulation (Application Rate of 2.0 l/ha) • b) Imazamox 40 g/l SC + Aclonifen 600 g/l SC tank-mix (Application Rate of 1.0 l/ha + 1.0 l/ha) • c) Imazamox 40 g/l SL formulation (commercially available as Pulsar) (Application Rate of 1.0 1/ha) • d) Aclonifen 600 g/l SC formulation (Application Rate of 1.0 l/ha)
(§2) The above treatments were applied to a variety of weeds. The results are based on a 0 to 100 scale where 0 is no effect and 100 is complete control. Table 2 compares the individual applications aclonifen and imazamox with the tank-mix of the two active ingredients as well as the ready-mix formulation of aclonifen and imazamox.
(§3) The trial detailed in Tables 1-4 were conducted on Sunflower crop in France, Hungary and Romania.

Another test deals with Amaranthus retroflexus. The test is described as above. The settings on record: avg, n 2.
Description: as §1, §2, §3

The test system of the next test is Ambrosia artemisiifolia. Described as above. The settings on record: avg, n 2.
Description: as §1, §2, §3

The test system of a further test is Calystegia sepium. Described as above. The settings on record: avg, n 1.
Description: as §1, §2, §3

A further test concerns Chenopodium album. Described as above. The following applies: avg, n 6.
Description: as §1, §2, §3

A further test has as its system Conyza Canadensis. The test is described as above. The following applies: avg, n 1.
Description: as §1, §2, §3

Another test deals with Digitaria sanguinalis. The test is described as above. The following applies: avg, n 1.
Description: as §1, §2, §3

A further test deals with Echinochloa crus-galli. The test is described as above. The settings on record: avg, n 3.
Description: as §1, §2, §3

For the next test, the system named is Fallopia convolvulus. The description is as above. The following applies: avg, n 1.
Description: as §1, §2, §3

The test system of the next test is Hibiscus trionum. The description is as above. The following applies: avg, n 2.
Description: as §1, §2, §3

For another test, the system named is Mercurialis annua. The test is described as above. The settings on record: avg, n 2.
Description: as §1, §2, §3

Test [1] concerns Persicaria lapathifolia. Described as above. The following applies: avg, n 1.
Description: as §1, §2, §3

Test [2] deals with Setaria pumila. The description is as above. The settings on record: avg, n 1.
Description: as §1, §2, §3

The test system of another test is Sonchus arvensis. Described as above. The settings on record: avg, n 1.
Description: as §1, §2, §3

Test [3] concerns Persicaria lapathifolia. The test can be described thus: Herbicide efficacy trial with Colby calculation, Example 2. The following applies: application rate 1000 (ml or gr).
Description: (§4) In the context of the present subject matter, the term "synergy" is as defined by Colby S. R. in an article entitled "Calculation of the synergistic and antagonistic responses of herbicide combinations" published in the journal Weeds, 1967, 15, p. 20-22, incorporated herein by reference in its entirety. The action expected for a given combination of three active ingredients can be calculated as follows: E = X + Y−(XY)/(100) [formula] in which E represents the expected percentage of herbicidal control for the combination of the three herbicides at defined doses (for example equal to x, y and z respectively), X is the percentage of herbicidal control observed by aclonifen at a defined dose (equal to x), Y is the percentage of herbicidal control observed by imazamox at a defined dose (equal to y). When the percentage of herbicidal control observed for the combination is greater than the expected percentage, there is a synergistic effect. When the percentage of control observed for the combination is equal to the expected percentage, there is an additive effect and wherein the percentage of herbicidal control observed for the combination is lower than the expected percentage, there is an antagonistic effect.
(§5) Three herbicide treatments were compared: • a) Imazamox 40 g/l SC + Aclonifen 600 g/l SC tank-mix (Application Rate of 1.0 l/ha + 1.0 l/ha) • b) Imazamox 40 g/l SL formulation (commercially available as Pulsar) (Application Rate of 1.0 l/ha) • c) Aclonifen 600 g/l SC formulation (Application Rate of 1.0 l/ha)
(§6) The above treatments were applied to a variety of weeds. The results are based on a 0 to 100 scale where 0 is no effect and 100 is complete control. Table 3-4 compares the individual applications of aclonifen and imazamox with the tank of the two active ingredients.
as §3

Test [4] concerns Setaria pumila. The description is as above. The following applies: application rate 1000 (ml or gr); for % control observed 41 DAA: 41 days after application; for % control observed 62 DAA: 62 days after application; for % control observed 107 DAA: 107 days after application.
Description: as §4, §5, §6, §3

The next test concerns Solanum Nigrum. Described as above. The settings on record: application rate 1000 (ml or gr).
Description: as §4, §5, §6, §3

For test [5], the system named is Persicaria lapathifolia. The test is described as follows: Herbicide efficacy trial with Colby calculation, Example 3. The settings on record: application rate 1000 (ml or gr); for % control observed 13 DAA: 13 days after application; for % control observed 38 DAA: 38 days after application; for % control observed 76 DAA: 76 days after application.
Description: as §4
Four herbicide treatments were compared: • a) Imazamox 20 g/l + Aclonifen 300 g/l SC formulation (Application Rate of 2.0 l/ha) • b) Imazamox 40 g/l SC + Aclonifen 600 g/l SC tank-mix (Application Rate of 1.0 l/ha + 1.0 l/ha) • c) Imazamox 40 g/l SL formulation (commercially available as Pulsar) (Application Rate of 1.0 l/ha) • d) Aclonifen 600 g/l SC formulation (Application Rate of 1.0 l/ha)
The above treatments were applied to a variety of weeds. The results are based on a 0 to 100 scale where 0 is no effect and 100 is complete control. Table 5 compares the individual applications aclonifen and imazamox with the tank-mix of the two active ingredients as well as the ready-mix formulation of aclonifen and imazamox.

As for `COCc1cnc(C2=NC(C)(C(C)C)C(=O)N2)c(C(=O)O)c1` (racemic) [Imazamox SL, 2-[(RS)-4-isopropyl-4-methyl-5-oxo-2-imidazolin-2-yl]-5-methoxymethylnicotinic acid], the “Efficacy (% Control)” value amounted to 90.5% in the test on Abutilon theophrasti (40 g ai/ha, 1,00 l/ha); 93.3% in the test on Amaranthus retroflexus (40 g ai/ha, 1,00 l/ha); 88.4% in the test with Ambrosia artemisiifolia (40 g ai/ha, 1,00 l/ha); 80.5% with Calystegia sepium (40 g ai/ha, 1,00 l/ha); 91.0% in the test with Chenopodium album (40 g ai/ha, 1,00 l/ha); 37.5% in the test with Conyza Canadensis (40 g ai/ha, 1,00 l/ha). In addition, the “Efficacy (% Control)” value with Digitaria sanguinalis (40 g ai/ha, 1,00 l/ha) is recorded as 75.0%; in the test with Echinochloa crus-galli (40 g ai/ha, 1,00 l/ha), 85.1%; in the test on Fallopia convolvulus (40 g ai/ha, 1,00 l/ha), 92.8%; in the test on Hibiscus trionum (40 g ai/ha, 1,00 l/ha) it was 58.1%; in the test with Mercurialis annua (40 g ai/ha, 1,00 l/ha) it was 69.0%; in the test on Persicaria lapathifolia [1] (40 g ai/ha, 1,00 l/ha), 67.9%. In addition, the “Efficacy (% Control)” value was found to be 81.0% in the test with Setaria pumila [2] (40 g ai/ha, 1,00 l/ha) and 84.6% in the test on Sonchus arvensis (40 g ai/ha, 1,00 l/ha). In addition, the “% control observed” value is given as 67.90% with Persicaria lapathifolia [3] (40 g/ha), 81% in the test with Setaria pumila [4] (40 g/ha) and 79.45% in the test with Solanum Nigrum (40 g/ha). Moreover, the “% control observed 41 DAA” value with Setaria pumila [4] (40 g/ha) is 20.00%. Moreover, the “% control observed 62 DAA” value in the test on Setaria pumila [4] (40 g/ha) was 90.00%. The “% control observed 107 DAA” value with Setaria pumila [4] (40 g/ha) is recorded as 81.00%. For the same compound, the “% control observed 13 DAA” value with Persicaria lapathifolia [5] (40 g/ha) was 79.47%. Besides, in the test on Persicaria lapathifolia [5] (40 g/ha), the “% control observed 38 DAA” value was 58.11%. Further, the “% control observed 76 DAA” value with Persicaria lapathifolia [5] (40 g/ha) is 55.50%.
As to `Nc1c([N+](=O)[O-])ccc(Oc2ccccc2)c1Cl` [Aclonifen SC, 2-Chlor-6-nitro-3-phenoxyanilin], the “Efficacy (% Control)” value is recorded as 50.0% with Abutilon theophrasti (600 g ai/ha, 1,00 l/ha); 72.0% in the test on Amaranthus retroflexus (600 g ai/ha, 1,00 l/ha); 78.9% in the test on Ambrosia artemisiifolia (600 g ai/ha, 1,00 l/ha); 66.8% in the test on Calystegia sepium (600 g ai/ha, 1,00 l/ha); 85.1% with Chenopodium album (600 g ai/ha, 1,00 l/ha); 25.0% in the test with Conyza Canadensis (600 g ai/ha, 1,00 l/ha). The “Efficacy (% Control)” value is reported as 62.5% in the test with Digitaria sanguinalis (600 g ai/ha, 1,00 l/ha); 78.1% in the test on Echinochloa crus-galli (600 g ai/ha, 1,00 l/ha); 91.0% in the test with Fallopia convolvulus (600 g ai/ha, 1,00 l/ha); 81.3% in the test on Hibiscus trionum (600 g ai/ha, 1,00 l/ha); 74.7% in the test with Mercurialis annua (600 g ai/ha, 1,00 l/ha); 38.3% with Persicaria lapathifolia [1] (600 g ai/ha, 1,00 l/ha). For the same compound, the “Efficacy (% Control)” value is on record as 20.0% in the test on Setaria pumila [2] (600 g ai/ha, 1,00 l/ha) and 84.7% in the test with Sonchus arvensis (600 g ai/ha, 1,00 l/ha). Moreover, the “% control observed” value is recorded as 38.30% in the test with Persicaria lapathifolia [3] (600 g/ha), 20% in the test with Setaria pumila [4] (600 g/ha) and 33.33% in the test on Solanum Nigrum (600 g/ha). The “% control observed 41 DAA” value in the test on Setaria pumila [4] (600 g/ha) is 11.00%. The “% control observed 62 DAA” value in the test with Setaria pumila [4] (600 g/ha) was 20.00%. The “% control observed 107 DAA” value in the test with Setaria pumila [4] (600 g/ha) was 20.00%. In the test with Persicaria lapathifolia [5] (600 g/ha), the “% control observed 13 DAA” value is 71.02%. Besides, in the test on Persicaria lapathifolia [5] (600 g/ha), the “% control observed 38 DAA” value is reported as 44.14%. Also, in the test with Persicaria lapathifolia [5] (600 g/ha), the “% control observed 76 DAA” value is on record as 38.25%.

The record behind these values is patent EP3125690B1, “HERBICIDAL MIXTURE OF CAROTENOID BIOSYNTHESIS INHIBITING COMPOUND AND AN AHAS/ALS INHIBITING COMPOUND AND USES THEREOF” (Adama Agan Ltd., priority 2014, dated 2015).
